Counter-ions that a name gives are not always drawn.

Series [1] addresses T1, monoamine oxidase A (MAO-A) (Homo sapiens, UniProt P21397).
T1 construct: purchased Sigma-Aldrich
T1 sequence (P21397 1-527): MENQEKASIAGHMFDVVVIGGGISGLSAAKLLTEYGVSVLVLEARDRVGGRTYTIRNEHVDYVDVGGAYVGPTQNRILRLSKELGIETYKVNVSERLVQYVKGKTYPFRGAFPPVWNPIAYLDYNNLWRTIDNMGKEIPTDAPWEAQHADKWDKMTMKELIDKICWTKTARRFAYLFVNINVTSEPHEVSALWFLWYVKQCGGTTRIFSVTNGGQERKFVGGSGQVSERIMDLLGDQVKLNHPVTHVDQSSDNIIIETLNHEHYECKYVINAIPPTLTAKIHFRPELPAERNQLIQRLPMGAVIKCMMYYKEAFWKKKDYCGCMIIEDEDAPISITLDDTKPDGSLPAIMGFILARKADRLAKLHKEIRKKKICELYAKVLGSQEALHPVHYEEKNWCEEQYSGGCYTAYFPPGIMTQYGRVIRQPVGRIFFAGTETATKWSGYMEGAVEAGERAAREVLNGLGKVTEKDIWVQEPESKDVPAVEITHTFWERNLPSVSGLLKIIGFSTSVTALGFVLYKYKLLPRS
The experiment in a line: Monoamine oxidase inhibition test (MAO-Glo assay kit). It counts as biochemical. The settings on record: room temperature, 1 hour.
Method: (§6) To the reaction liquid was added 50 μL of a luciferin detection reagent, and the mixture was subjected to a reaction at room temperature for 20 minutes.

For series [2], the target named is T2, monoamine oxidase B (MAO-B) (Homo sapiens, UniProt P27338).
T2 construct: purchased Sigma-Aldrich
T2 sequence (P27338 1-520): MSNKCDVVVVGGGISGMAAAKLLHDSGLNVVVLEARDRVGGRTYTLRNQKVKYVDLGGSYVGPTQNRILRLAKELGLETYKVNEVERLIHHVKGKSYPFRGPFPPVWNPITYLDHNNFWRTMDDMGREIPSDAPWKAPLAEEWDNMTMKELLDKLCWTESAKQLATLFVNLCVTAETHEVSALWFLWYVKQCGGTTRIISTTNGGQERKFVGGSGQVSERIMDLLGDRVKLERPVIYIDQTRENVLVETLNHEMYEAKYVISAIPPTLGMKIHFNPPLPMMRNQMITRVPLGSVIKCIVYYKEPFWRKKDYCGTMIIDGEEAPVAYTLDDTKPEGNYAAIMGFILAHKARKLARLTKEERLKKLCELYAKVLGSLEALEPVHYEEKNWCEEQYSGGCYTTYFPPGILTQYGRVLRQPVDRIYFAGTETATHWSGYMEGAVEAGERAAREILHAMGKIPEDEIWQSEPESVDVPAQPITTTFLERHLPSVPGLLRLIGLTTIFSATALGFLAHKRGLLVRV
The series is described as above. The class given is biochemical. Particulars: room temperature, 1 hour.
Method: as §6

In another series the test system is HeLa cells. The experiment in a line: Cancer cell growth inhibition evaluation (MTT assay). It counts as cell-based. Particulars: Homo sapiens, 48 h, read-out: GI50 (μM) HeLa. The method, then: (§1) Evaluation was performed by measuring the inhibitory activities of a compound against the growth of a human cervical cancer-derived cell line, HeLa cells, and a human neuroblastoma cell line, SH-SY5Y cells. Details thereof are shown below. […] This assay involves, as a principle thereof, measuring an absorbance at the time of color development through a reaction of NADH, which is contained in the mitochondria of viable cells, and MTT to measure the amount of NADH. The assay was performed by the following procedure. […] After the culture, a compound was added. Then, the cells were cultured for an additional 48 hours, and then 5 mg/ml MTT liquid was added at 10 μl per well. The cells were cultured for an additional 3 hours in a CO2 incubator. A solubilization solution (0.04 mol/l hydrochloric acid-isopropanol) was added at 100 μl per well and the mixture was vigorously vortexed. After that, an absorbance at 560 nm was measured with Fusion-aFP (manufactured by PerkinElmer) and the amount of viable cells was determined.
On the technique in general: Formazan colour is commonly taken as a measure of viable cells.

The next series relates to SH-SY5Y cells. Described as above. The class given is cell-based. The settings on record: Homo sapiens, read-out: GI50 (μM) SH-SY5Y. The method, then: as §1
In a further series the test system is HEL. Put plainly: Leukemia cell growth inhibition evaluation (WST-8). It counts as cell-based. The settings on record: Homo sapiens, day 3 (72-hour culture), read-out: Human leukemia cell line GI50 (μM) HEL. The text has this:
(§2) HL60, THP-1, K562, U937, KGla, HEL, and MDS-L were used as human leukemia cells. The cell lines are cell lines established from various subtypes such as acute myeloid leukemia, acute promyelocytic leukemia, acute monocytic leukemia, acute erythroid leukemia, and myelodysplastic syndromes, which progress to leukemia. Cells obtained by introducing leukemia fusion genes MLL/AF9, MLL/SEPT6, and MLL/ENL into the bone marrow of normal mice with a retrovirus so as to develop leukemia were used as murine leukemia cell lines.
(§3) This assay method involves, as a principle thereof, measuring an absorbance (a peak at from 450 nm to 490 nm) at the time of color development through a reaction of NADH, which is contained in the mitochondria of viable cells, and WST-8 to measure the amount of NADH. Specifically, the assay was performed by the following procedure.
(§4) The cells were plated at 50 μl, i.e., 5,000 cells per well in a 96-well microtiter plate. Next, a test compound dissolved in DMSO was mixed at various concentrations into the same medium, and 50 μl of each of the mixtures was added to each well. A medium was prepared so that the final concentration of the test compound was from 0 μM to 50 μM and so that the addition amount of DMSO was the same, and the cells were cultured in a CO2 incubator. On day 0 before the addition and on day 1, day 2, and day 3 after the addition, WST-8 reagent was added at 20 μl per well, and the cells were cultured for 1 hour in a CO2 incubator. After that, measurement was performed with ARVO X3 (manufactured by PerkinElmer).
(§5) Specifically, an absorbance at 450 nm was measured, an absorbance at 595 nm was measured in the same well, and the absorbance at 595 nm was subtracted from the absorbance at 450 nm to perform background correction for the well itself. Further, a well containing only a medium free of cells was subjected to the same measurement. A value in this case was also subtracted. Thus, the amount of viable cells was represented as a numerical value with correction of the influence of a medicament or a medium as well. Under a condition not containing the test compound (addition of only dimethyl sulfoxide), an exponential increase in number of viable cells on day 1, day 2, and day 3 in the stated order was confirmed.

The test system of the next series is HL60. Put plainly: Leukemia cell growth inhibition evaluation (WST-8). Particulars: Homo sapiens, HL-60; day 3 (72-hour culture); read-out: Human leukemia cell line GI50 (μM) HL60. The class given is cell-based.
Source text: as §2, §3, §4, §5

Another series concerns KG1a. The experiment in a line: Leukemia cell growth inhibition evaluation (WST-8). The class given is cell-based. The settings on record: Homo sapiens, KG-1a; day 3 (72-hour culture); read-out: Human leukemia cell line GI50 (μM) KG1a.
Source text: as §2, §3, §4, §5

Another series deals with MDS-L. Put plainly: Leukemia cell growth inhibition evaluation (WST-8). It counts as cell-based. The settings on record: Homo sapiens; day 3 (72-hour culture); read-out: Human leukemia cell line GI50 (μM) MDS-L.
Source text: as §2, §3, §4, §5

In the next series the test system is THP1. Put plainly: Leukemia cell growth inhibition evaluation (WST-8). It counts as cell-based. The settings on record: Homo sapiens, THP-1; day 3 (72-hour culture); read-out: Human leukemia cell line GI50 (μM) THP1.
Source text: as §2, §3, §4, §5

For another series, the system named is U937. Put plainly: Leukemia cell growth inhibition evaluation (WST-8). Particulars: Homo sapiens, U-937; day 3 (72-hour culture); read-out: Human leukemia cell line GI50 (μM) U937. The class given is cell-based.
Source text: as §2, §3, §4, §5

In series [3] the test system is bone marrow cells of normal mice. Put plainly: Normal cell growth inhibition evaluation (colony forming ability in methylcellulose semi-solid medium). It counts as cell-based. The settings on record: at 10 μM; 10 days culture; FIG. 1. The text has this: In general, a semi-solid medium obtained by adding a cytokine involved in differentiation induction to a methylcellulose medium is used to evaluate a colony forming ability. Some of the bone marrow cells contain hematopoietic stem cells and precursor cells, which are sources of hematopoietic cells, and these cells can create a mass (called a colony) formed of several tens, several hundreds, and in some cases, several thousands of cells from a single cell on a semi-solid medium. The colony forming ability of the bone marrow cells may be evaluated by counting the number of the colonies. The colony forming ability in the semi-solid medium well reflects an actual supply ability and construction ability from the hematopoietic stem cells and precursor cells to the hematopoietic cells in vivo.
To 3 ml of MethoCult M3434 (methylcellulose-based semi-solid medium; StemCell Technologies; containing interleukin 3(IL-3), interleukin 6 (IL-6), erythropoietin (EPO), and stem cell factor (SCF)) were added 600,000 bone marrow cells of normal mice (suspended in 300 μl of IMDM medium), and the mixture was stirred well and plated at 1.1 ml per 3.5-cm culture dish. The cells were cultured under the conditions of 5% CO2 and 37° C. for 10 days in an incubator. A mass in which the number of cells was 50 or more was defined as a colony, and the number of colonies formed on each dish was counted.

The subject of series [4] is human leukemia cell lines. Put plainly: Leukemia cell growth inhibition evaluation, summary in words. The class given is cell-based. The settings on record: Table 5.
Source text: as §2, §3, §4, §5

Series [5] concerns murine leukemia cell lines. Described as above. The class given is cell-based. The settings on record: Table 6.
Source text: as §2, §3, §4, §5

One may read the melting point as the temperature, or range, at which the solid turns liquid. `O=C(N[C@@H](CCCCNC1CC1c1ccccc1)C(=O)NCc1ccccc1)c1ccc(-c2ccccc2)cc1` (stereo partly drawn) (as salt: hydrochloride) [Example 8, 2-[N-(4-Phenylbenzenecarbonyl)]amino-6-(trans-2-phenylcyclopropan-1-amino)-N-benzylhexanamide Hydrochloride] displayed a melting point of 143 to 146 °C.

In turn, `O=C(N[C@@H](CCCCNC1CC1c1ccccc1)C(=O)NCc1ccccc1)c1ccc(C(F)(F)F)cc1` (stereo partly drawn) (as salt: hydrochloride) [Example 9, 2-[N-(4-Trifluoromethylbenzenecarbonyl)]amino-6-(trans-2-phenylcyclopropan-1-amino)-N-benzylhexanamide Hydrochloride] returned a melting point of 98 to 101 °C.

On to `Cc1ccc(CNC(=O)[C@H](CCCCNC2CC2c2ccccc2)NC(=O)c2ccc(-c3ccccc3)cc2)cc1` (stereo partly drawn) (as salt: hydrochloride) [Example 12, 2-[N-(4-Phenylbenzenecarbonyl)]amino-6-(trans-2-phenylcyclopropan-1-amino)-N-(4-methylbenzyl)hexanamide Hydrochloride], for which the melting point is 117 to 118 °C.

Consider `O=C(N[C@@H](CCCCNC1CC1c1ccccc1)C(=O)NCc1ccc(F)cc1)c1ccc(-c2ccccc2)cc1` (stereo partly drawn) (as salt: hydrochloride) [Example 13, 2-[N-(4-Phenylbenzenecarbonyl)]amino-6-(trans-2-phenylcyclopropan-1-amino)-N-(4-fluorobenzyl)hexanamide Hydrochloride], for which the melting point fell in the range of 95 to 96 °C.

In turn, `O=C(N[C@@H](CCCCNC1CC1c1ccccc1)C(=O)NCc1ccc(-c2ccccc2)cc1)c1ccc(-c2ccccc2)cc1` (stereo partly drawn) (as salt: hydrochloride) [Example 14, 2-[N-(4-Phenylbenzenecarbonyl)]amino-6-(trans-2-phenylcyclopropan-1-amino)-N-(4-phenylbenzyl)hexanamide Hydrochloride] yielded a melting point of 139 to 140 °C.

For the compound `Cc1cccc(CNC(=O)[C@H](CCCCNC2CC2c2ccccc2)NC(=O)c2ccc(-c3ccccc3)cc2)c1` (stereo partly drawn) (as salt: hydrochloride) [Example 16, 2-[N-(4-Phenylbenzenecarbonyl)]amino-6-(trans-2-phenylcyclopropan-1-amino)-N-(3-methylbenzyl)hexanamide Hydrochloride], the melting point fell in the range of 101 to 103 °C.

In turn, `O=C(N[C@@H](CCCCNC1CC1c1ccccc1)C(=O)NCc1cccc(C(F)(F)F)c1)c1ccc(-c2ccccc2)cc1` (stereo partly drawn) (as salt: hydrochloride) [Example 19, 2-[N-(4-Phenylbenzenecarbonyl)]amino-6-(trans-2-phenylcyclopropan-1-amino)-N-(3-trifluoromethylbenzyl)hexanamide Hydrochloride] registered a melting point of 129 to 130 °C.

One may read the IC50 as the point on the concentration scale where inhibition reaches its midpoint. What is called GI50 is the concentration that inhibits growth by half. Turning to `O=C(N[C@@H](CCCCNC1CC1c1ccccc1)C(=O)NCc1ccc(Cl)cc1)c1ccc(-c2ccccc2)cc1` (stereo partly drawn) [Example 20, 2-[N-(4-Phenylbenzenecarbonyl)]amino-6-(trans-2-phenylcyclopropan-1-amino)-N-(4-chlorobenzyl)hexanamide Hydrochloride], the IC50 in series [1] and in [2] was more than 100 µM in each case. Besides, the GI50 in the series on HeLa cells is 4 µM; in the series on SH-SY5Y cells, 1.4 µM.

`O=C(N[C@@H](CCCCNC1CC1c1ccccc1)C(=O)NCc1cccc(Cl)c1)c1ccc(-c2ccccc2)cc1` (stereo partly drawn) [Example 21, 2-[N-(4-Phenylbenzenecarbonyl)]amino-6-(trans-2-phenylcyclopropan-1-amino)-N-(3-chlorobenzyl)hexanamide Hydrochloride]: the IC50 in [1] and in series [2] was more than 100 µM each time. Besides, the GI50 is 4.3 µM in the series with HeLa cells; 2.7 µM with SH-SY5Y cells; less than 1.3 µM in the series with HEL; 5 to 10 µM in the series with HL60; 10 to 20 µM in the series on KG1a; less than 1.3 µM with MDS-L. The GI50 in the series on THP1 and in the series on U937 was 10 to 20 µM throughout. The colony forming ability entry in series [3] was “not inhibited”. Besides, the “growth inhibitory / suppressing effect on the human leukemia cell lines (in words)” value in series [4] is “higher growth suppressing effects on the human leukemia cell lines than Comparative Example 2”. The “growth inhibitory / suppressing effect on the murine leukemia cell lines (in words)” value in [5] is recorded as “very high growth suppressing effects”.

(Values after US9388123B2, “LSD1-selective inhibitor having lysine structure” (KYOTO UNIVERSITY, priority 2012, dated 2016).)
